The numbers were not newly measured in patent CN110302150A, “甲硫氨酸维生素b1注射液及其的制备方法” (Chengdu Cacumen Et Folium Clerodendri Mandarinori …, priority 2019, dated 2019), which cites them from elsewhere.

Like-named read-outs stand apart in the source and are kept apart here.

For `CSCCC(N)C(=O)O` (stereo not drawn) [甲硫氨酸], where the note is “during production and storage”, the stability entry is “不稳定,较易降解”. Take `Cc1ncc(C[n+]2csc(CCO)c2C)c(N)n1` [维生素B1]: the stability result reads like this: (during production and storage) “不稳定,较易降解”; (high temperature and pH>4) “不稳定”.
